# Source: patent US10597388B2, “Pyridazinone herbicides” (FMC CORPORATION, priority 2014, dated 2020)
# Experiments:
# Test in all cases: Test D controlled growth environment herbicide test, pre- and postemergence
# Type in all cases: in vivo
# [1] = system: lambsquarters (Chenopodium album)
# Excerpt: (§1) Seeds of plant species selected from bluegrass (annual bluegrass, Poa annua), blackgrass (Alopecurus myosuroides), Canada thistle (Cirsium arvense), canarygrass (Phalaris minor), chickweed (common chickweed, Stellaria media), geranium, cutleaf (cutleaf geranium, Geranium dissectum), galium (catchweed bedstraw, Galium aparine), bromegrass, downy (downy bromegrass, Bromus tectorum), field poppy (Papaver rhoeas), field violet (Viola arvensis), foxtail, green (green foxtail, Setaria viridis), deadnettle (henbit deadnettle, Lamium amplexicaule), ryegrass, Italian (Italian ryegrass, Lolium multiflorum), kochia (Kochia scoparia), lambsquarters (Chenopodium album), oilseed rape (Brassica napus), pigweed (Amaranthus retroflexus), chamomile (scentless chamomile, Matricaria inodora), Russian thistle (Salsola kali), speedwell (bird's-eye speedwell, Veronica persica), barley, spring (spring barley, Hordeum vulgare), wheat, spring (spring wheat, Triticum aestivum), buckwheat, wild (wild buckwheat, Polygonum convolvulus), mustard, wild (wild mustard, Sinapis arvensis), oat, wild (wild oat, Avena fatua), radish, wild (wild radish, Raphanus raphanistrum), windgrass (Apera spica-venti), barley, winter (winter barley, Hordeum vulgare), and wheat, winter (winter wheat, Triticum aestivum) were planted into a silt loam soil and treated preemergence with test chemicals formulated in a non-phytotoxic solvent mixture which included a surfactant.
# (§2) At the same time, these species were planted in pots containing Redi-Earth® planting medium (Scotts Company, 14111 Scottslawn Road, Marysville, Ohio 43041) comprising spaghnum peat moss, vermiculite, wetting agent and starter nutrients and treated with postemergence applications of the test chemicals formulated in the same manner. Plants ranged in height from 2 to 18 cm (1- to 4-leaf stage). Treated plants and controls were maintained in a controlled growth environment for 14 to 21 d after which time all species were compared to controls and visually evaluated. Plant response ratings, summarized in Table D, are based on a scale of 0 to 100 where 0 is no effect and 100 is complete control. A dash (-) response means no test result.
# [2] = system: wheat, winter (winter wheat, Triticum aestivum)
# Excerpt: as §1, §2
# [3] = system: field poppy (Papaver rhoeas)
# Excerpt: as §1, §2
# [4] = system: barley, winter (winter barley, Hordeum vulgare)
# Excerpt: as §1, §2
# kochia (Kochia scoparia) = system: kochia (Kochia scoparia)
# Excerpt: as §1, §2
# [5] = system: windgrass (Apera spica-venti)
# Excerpt: as §1, §2
# [6] = system: speedwell (bird's-eye speedwell, Veronica persica)
# Excerpt: as §1, §2
# [7] = system: bromegrass, downy (downy bromegrass, Bromus tectorum)
# Excerpt: as §1, §2
# [8] = system: chickweed (common chickweed, Stellaria media)
# Excerpt: as §1, §2
# [9] = system: Russian thistle (Salsola kali)
# Excerpt: as §1, §2
# [10] = system: deadnettle (henbit deadnettle, Lamium amplexicaule)
# Excerpt: as §1, §2
# [11] = system: galium (catchweed bedstraw, Galium aparine)
# Excerpt: as §1, §2
# [12] = system: mustard, wild (wild mustard, Sinapis arvensis)
# Excerpt: as §1, §2
# [13] = Postemergence, 31 g ai/ha, scale 0 to 100 (0 no effect, 100 complete control)
# [14] = Postemergence, 125 g ai/ha, visual rating on scale 0 (no effect) to 100 (complete control), 14 to 21 d
# [15] = Postemergence, 250 g ai/ha, scale 0 to 100 (0 no effect, 100 complete control)
# [16] = Preemergence, 62 g ai/ha, scale 0 to 100 (0 no effect, 100 complete control)
# [17] = Preemergence, 125 g ai/ha, scale 0 to 100 (0 no effect, 100 complete control)
# [18] = Preemergence, 250 g ai/ha, scale 0 to 100 (0 no effect, 100 complete control)
# [19] = postemergence, 62 g ai/ha, scale 0 to 100, 0 no effect, 100 complete control
structure (smiles),measurement,setting,value
CCC(=O)Oc1c(C)nn(C)c(=O)c1-c1c(C)sc2ccc(C)cc12 [Compound 42],Lambsquarters plant response rating,[1]; [13],80
same,"Plant response rating, Lambsquarters",[1]; [14],85
same,"Plant response rating, Lambsquarters",[1]; [15],90
same,"Plant response rating (scale of 0 to 100), Lambsquarters","[1]; Preemergence, 31 g ai/ha",98
same,"Plant response rating, Lambsquarters",[1]; [16],100
same,"Plant response rating, Lambsquarters",[1]; [17],100
same,"Plant response rating, Lambsquarters",[1]; [18],100
same,"Plant response rating, Lambsquarters",[1]; [19],85
same,"Wheat, Winter plant response rating",[2]; [13],0
same,"Plant response rating, Wheat, Winter",[2]; [14],10
same,"Plant response rating, Wheat, Winter",[2]; [15],15
same,"Plant response rating (scale of 0 to 100), Wheat, Winter","[2]; Preemergence, 31 g ai/ha",0
same,"Plant response rating, Wheat, Winter",[2]; [16],0
same,"Plant response rating, Wheat, Winter",[2]; [17],5
same,"Plant response rating, Wheat, Winter",[2]; [18],15
same,"Plant response rating, Wheat, Winter",[2]; [19],5
same,Field Poppy plant response rating,[3]; [13],65
same,"Plant response rating, Field Poppy",[3]; [14],100
same,"Plant response rating, Field Poppy",[3]; [15],100
same,"Plant response rating (scale of 0 to 100), Field Poppy","[3]; Preemergence, 31 g ai/ha",100
same,"Plant response rating, Field Poppy",[3]; [16],100
same,"Plant response rating, Field Poppy",[3]; [17],100
same,"Plant response rating, Field Poppy",[3]; [18],100
same,"Plant response rating, Field Poppy",[3]; [19],85
same,"Plant response rating, Barley, Winter",[4]; [13],0
same,"Plant response rating, Barley, Winter",[4]; [14],0
same,"Plant response rating, Barley, Winter",[4]; [15],10
same,"Plant response rating (scale of 0 to 100), Barley, Winter","[4]; Preemergence, 31 g ai/ha",0
same,"Plant response rating, Barley, Winter",[4]; [16],0
same,"Plant response rating, Barley, Winter",[4]; [17],5
same,"Barley, Winter plant response rating",[4]; [18],15
same,"Plant response rating, Barley, Winter",[4]; [19],0
same,Kochia plant response rating,kochia (Kochia scoparia); [13],70
same,"Plant response rating, Kochia",kochia (Kochia scoparia); [14],95
same,"Plant response rating, Kochia",kochia (Kochia scoparia); [15],100
same,"Plant response rating (scale of 0 to 100), Kochia","kochia (Kochia scoparia); Preemergence, 31 g ai/ha",20
same,"Plant response rating, Kochia",kochia (Kochia scoparia); [16],60
same,"Plant response rating, Kochia",kochia (Kochia scoparia); [17],75
same,"Plant response rating, Kochia",kochia (Kochia scoparia); [18],100
same,"Plant response rating, Kochia",kochia (Kochia scoparia); [19],90
same,Windgrass plant response rating,[5]; [13],70
same,"Plant response rating, Windgrass",[5]; [14],90
same,"Plant response rating, Windgrass",[5]; [15],98
same,"Plant response rating (scale of 0 to 100), Windgrass","[5]; Preemergence, 31 g ai/ha",70
same,"Plant response rating, Windgrass",[5]; [16],85
same,"Plant response rating, Windgrass",[5]; [17],85
same,"Plant response rating, Windgrass",[5]; [18],100
same,"Plant response rating, Windgrass",[5]; [19],75
same,Speedwell plant response rating,[6]; [13],10
same,"Plant response rating, Speedwell",[6]; [14],45
same,"Plant response rating, Speedwell",[6]; [15],45
same,"Plant response rating (scale of 0 to 100), Speedwell","[6]; Preemergence, 31 g ai/ha",70
same,"Plant response rating, Speedwell",[6]; [16],75
same,"Plant response rating, Speedwell",[6]; [17],70
same,"Plant response rating, Speedwell",[6]; [18],100
same,"Plant response rating, Speedwell",[6]; [19],50
same,"Bromegrass, Downy plant response rating",[7]; [13],0
same,"Plant response rating, Bromegrass, Downy",[7]; [14],40
same,"Plant response rating, Bromegrass, Downy",[7]; [15],70
same,"Plant response rating (scale of 0 to 100), Bromegrass, Downy","[7]; Preemergence, 31 g ai/ha",45
same,"Plant response rating, Bromegrass, Downy",[7]; [16],55
same,"Plant response rating, Bromegrass, Downy",[7]; [17],70
same,"Plant response rating, Bromegrass, Downy",[7]; [18],90
same,"Plant response rating, Bromegrass, Downy",[7]; [19],20
same,Chickweed plant response rating,[8]; [13],95
same,"Plant response rating, Chickweed",[8]; [14],100
same,"Plant response rating, Chickweed",[8]; [15],100
same,"Plant response rating (scale of 0 to 100), Chickweed","[8]; Preemergence, 31 g ai/ha",100
same,"Plant response rating, Chickweed",[8]; [16],100
same,"Plant response rating, Chickweed",[8]; [17],100
same,"Plant response rating, Chickweed",[8]; [18],100
same,"Plant response rating, Chickweed",[8]; [19],100
same,Russian Thistle plant response rating,[9]; [13],70
same,"Plant response rating, Russian Thistle",[9]; [14],85
same,"Plant response rating, Russian Thistle",[9]; [15],90
same,"Plant response rating (scale of 0 to 100), Russian Thistle","[9]; Preemergence, 31 g ai/ha",10
same,"Plant response rating, Russian Thistle",[9]; [16],15
same,"Plant response rating, Russian Thistle",[9]; [17],65
same,"Plant response rating, Russian Thistle",[9]; [18],75
same,"Plant response rating, Russian Thistle",[9]; [19],75
same,Deadnettle plant response rating,[10]; [13],5
same,"Plant response rating, Deadnettle",[10]; [14],35
same,"Plant response rating, Deadnettle",[10]; [15],55
same,"Plant response rating (scale of 0 to 100), Deadnettle","[10]; Preemergence, 31 g ai/ha",0
same,"Plant response rating, Deadnettle",[10]; [16],0
same,"Plant response rating, Deadnettle",[10]; [17],25
same,"Plant response rating, Deadnettle",[10]; [18],15
same,"Plant response rating, Deadnettle",[10]; [19],25
same,Galium plant response rating,[11]; [13],100
same,"Plant response rating, Galium",[11]; [14],100
same,"Plant response rating, Galium",[11]; [15],100
same,"Plant response rating (scale of 0 to 100), Galium","[11]; Preemergence, 31 g ai/ha",70
same,"Plant response rating, Galium",[11]; [16],85
same,"Plant response rating, Galium",[11]; [17],95
same,"Plant response rating, Galium",[11]; [18],100
same,"Plant response rating, Galium",[11]; [19],100
same,"Mustard, Wild plant response rating",[12]; [13],25
same,"Plant response rating, Mustard, Wild",[12]; [14],70
same,"Plant response rating, Mustard, Wild",[12]; [15],80
same,"Plant response rating (scale of 0 to 100), Mustard, Wild","[12]; Preemergence, 31 g ai/ha",15
same,"Plant response rating, Mustard, Wild",[12]; [16],15
same,"Plant response rating, Mustard, Wild",[12]; [17],20
same,"Plant response rating, Mustard, Wild",[12]; [18],25
same,"Plant response rating, Mustard, Wild",[12]; [19],70
